“And” between values parts separate entries of the source, which are not always exact repeats. Equal values may be shown once.
Tests used:
[1] = tested on: retinal ganglion cells; test: Cell viability studies: labeled retinal ganglion cells surviving after 24 hrs in mixed retinal cultures; format: cell-based, rat; conditions: for reduction in the number of dead cells / protection against cell death triggered by BzATP: 50 uM BzATP + 100 nM A3 agonist
Method: (§1) Pups PD2-6 from untimed pregnant Long-Evan rats (Jackson Laboratory Inc., Bar Harbor, Me.) were back-labeled by the injection of FluoroGold derivative aminostilbamidine (Molecular Probes, Eugene, Oreg.) based upon standard protocols. […] Using a Hamilton syringe affixed to a micromanipulator, a needle was inserted 0.8 mm lateral from the midline and 0.8 mm anterior to Bregma's line and a total of 2.5 μl dye was delivered to each side at a depth of 2 mm and 1 mm. The needle was retracted after a delay of 2 min to allow dye absorption and the wound was closed with 2-3 sutures. Preliminary examination of labeled retinal whole mounts confirmed an even distribution of dye, showing all cells were stained 2 days after injection, with no further increase in the number of labeled cells in subsequent days. Consequently, retinas containing labeled ganglion cells were dissociated 2-6 days after injection. Animals were sacrificed by i.p. injection of 50/5 mg/kg Ketamine/Xylazine followed by an overdose, in accordance with University of Pennsylvania IACUC approved protocols and the ARVO Statement on the Use of Animals in Ophthalmic and Vision Research.
The retina was dissected from each globe, washed in sterile Hanks' balanced salt solution (HBSS, Gibco, Inc Invitrogen Corp., Carlsbad, Calif.), then incubated in HBSS containing activated papain (4.5 U/ml; Worthington Biochemical Corp., Lakewood, N.J.) for 12 minutes at 37° C. Retinas were washed twice and triturated 50 times with a 1-ml glass pipette to dissociate cells. Cells were plated onto twelve 12-mm coverslips previously coated with poly-L-lysine. […] Retinal cells were incubated at 37° C. with 5% CO2.
Drugs were added to the culture medium at the time when cells were plated onto coverslips. […] All counts were performed in a masked fashion. In experiments involving antagonist pretreatment, drugs were added to the medium at the time of plating. After preincubation at 37° C., stock concentrations of BzATP were added directly to the cells to give the final concentration shown.
Data are presented as mean±standard error of the mean. Significance was evaluated using a Student's unpaired t test, with a p value <0.05 signifying significance. For cell viability studies, the number of experiments, n, represents the number of coverslips from which 80 fields were measured and averaged. All values were normalized to the mean control level for that day's matched set of experiments to control for variation in plating efficiency.

[2] = tested on: retinal ganglion cells; test: Intracellular Ca2+ measurements (fura-2): BzATP-triggered Ca2+ elevation in ganglion cells from mixed retinal cultures; format: cell-based, rat
Method: as §1
The retina was dissected from each globe, washed in sterile Hanks' balanced salt solution (HBSS, Gibco, Inc Invitrogen Corp., Carlsbad, Calif.), then incubated in HBSS containing activated papain (4.5 U/ml; Worthington Biochemical Corp., Lakewood, N.J.) for 12 minutes at 37° C. Retinas were washed twice and triturated 50 times with a 1-ml glass pipette to dissociate cells. Cells were plated onto twelve 12-mm coverslips previously coated with poly-L-lysine. The basic growth medium contained Neurobasal medium with 2 mM glutamine, 100 μg/ml gentamicin, 0.025 ml/ml B27 supplement (all Invitrogen Inc., Carlsbad, Calif.), 0.7% methylcellulose (Stemcell Technologies Inc., Vancouver, BC, Canada) and 2.5% rat serum (Cocalico Biologicals Inc., Reamstown, Pa.). Retinal cells were incubated at 37° C. with 5% CO2.
(§2) Unlabeled RGCs grown on coverslips for 24 hrs were loaded with 10 μM fura-2 and 2% pluoronic (Molecular Probes, Eugene, Oreg.) for 60-90 min at room temperature, rinsed and maintained in fura-2-free solution for 30 min before data acquisition began. The coverslips were mounted on a Nikon Diaphot inverted microscope and visualized with a 40× objective. […] To obtain Ca^2+ measurements, the field was alternatively excited at 340 nm and 380 nm with a scanning monocrometer and the fluorescence emitted >520 nm from a region of interest surrounding individual retinal ganglion cells was imaged with a CCD camera and analyzed (all Photon Technologies International, Inc., Lawrenceville, N.J.). Cells were perfused with a control solution at the start of Ca^2+imaging experiments containing (in mM) 105 NaCl, 4.5 KCl, 2.8 NaHepes, 7.2 Hepes acid, 1.3 CaCl2, 0.5 MgCl2, 5 glucose, 75 mannitol, pH 7.4. Drugs were dissolved into the control solution. Calibration was performed separately on each cell after the experiment by perfusing cells in the presence of 5 μM ionomycin and control solution (with 1.3 mM Ca2+) followed by ionomycin in the base solution without Ca^2+ and with the addition of 5 mM EGTA (pH 7.4). The 340/380 ratio was converted to Ca^2+ concentration as previously described. All experiments were performed at room temperature.
In Ca^2+ experiments, n refers to the number of responses tested. The BzATP concentration-response curve was fit with a standard exponential function y=y0+ae(−bx) using Sigmaplot software (SPSS Inc, Chicago, Ill.). The % block of Ca2+ elevations is defined as 100*(a−b)/a, where a is the response under control conditions and b is the response under experimental conditions. All materials are from Sigma Chemical Corp, (St. Louis, Mo.) unless otherwise indicated.

[3] = tested on: isolated ganglion cells; test: Glutamate release from isolated ganglion cells (GDH/NADH fluorescence); format: cell-based, rat
Method: (§3) Purification of ganglion cells using the panning procedure is based upon published methods (Hartwick et al., 2004). Neonatal rat retinas (PD 7-12) were dissected and incubated at 37° C. for 30 min in HBSS containing 15 U/mL papain, 0.2 mg/mL DLcysteine and 0.004% DNAse I (Worthington/Cooper, Lakewood, N.J.). The tissue was triturated in HBSS with 1.5 mg/ml ovomucoid (Worthington/Cooper, Lakewood, N.J.), 1.5 mg/ml BSA and 0.004% DNase I, centrifuged at 200 g for 11 minutes at room temperature, and cells were rewashed with 10 mg/ml ovomucoid-BSA solution. After centrifugation, cells were resuspended with PBS containing 0.2 mg/ml BSA and 5 μg/ml insulin and filtered through a Nitex mesh (Small Parts Inc, Miami Lakes, Fla.). […]
The measurement of glutamate was analogous to that used previously by the Haydon laboratory. […] NADH fluorescence is excited using a xenon arc lamp (100 watts) with a D360/10x exciter filter (Chroma Technology Corp., Brattleboro, Vt.), 510DRLP dichroic mirror (Omega Optical, Brattleboro, Vt.), and 515EFLP emission filter (Omega Optical). Images collected before, during and after the BzATP stimulus indicate the level of fluorescence. The percent increase in fluorescence, figured by dividing the change in fluorescence (ΔF) by the fluorescence level before stimulation (F0), represents the level of glutamate release. […]

[4] = tested on: isolated retinal ganglion cells; test: Intracellular Ca2+ measurements: BzATP-triggered Ca2+ elevation in isolated (immunopanned) retinal ganglion cells; format: cell-based, rat; conditions: 50 μM BzATP 15 sec, purified ganglion cells
Method: as §2, §3

[5] = molecular target: T1, human A2B receptors (Homo sapiens, UniProt P29275); conditions: cited from earlier work
T1 sequence (P29275 1-332): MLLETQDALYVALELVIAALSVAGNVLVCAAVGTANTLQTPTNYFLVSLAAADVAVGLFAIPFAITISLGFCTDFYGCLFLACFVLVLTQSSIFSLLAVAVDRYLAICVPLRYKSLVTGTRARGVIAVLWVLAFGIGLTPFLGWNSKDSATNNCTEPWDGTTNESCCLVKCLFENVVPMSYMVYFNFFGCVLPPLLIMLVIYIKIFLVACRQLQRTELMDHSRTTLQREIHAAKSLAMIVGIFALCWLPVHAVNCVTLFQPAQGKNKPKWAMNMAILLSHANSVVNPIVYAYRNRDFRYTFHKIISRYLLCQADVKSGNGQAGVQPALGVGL

[6] = 50 uM BzATP + 100 nM A3 agonist (30 min before and during), 24 hrs

Nc1ncnc2c1ncn2[C@@H]1O[C@H](CO)[C@@H](O)[C@H]1O [adenosine]
ganglion cell survival ([1]; 50 μM BzATP + 300 uM adenosine (30 min before), 24 hours): 91.2±3.5%
ganglion cell survival, % of control ([1]; 50 μM BzATP + 1 mM adenosine, 24 hours): 92.4±2.5 % of control
ganglion cell counts, % of control ([1]; 100 uM NMDA + 300 uM adenosine, 24 hrs): 102.1±3.9 % of control
block of Ca2+ increase compared to BzATP alone ([2]; 300 uM adenosine, two minute 50 uM BzATP): 85%
effect on Ca2+ response to brief 50 uM BzATP ([2]; adenosine added with alternate BzATP applications, reversible, repeatable): greatly reduced the response
peak Ca2+ levels ([2]; two minute application of 50 uM BzATP in presence of 300 uM adenosine (2 min pretreatment), n=7): 215 ± 62 nM

CCOc1ccc(Nc2ccc(/C(=C3C=C/C(=[N+](/CC)Cc4cccc(S(=O)(=O)[O-])c4)C=C/3C)c3ccc(N(CC)Cc4cccc(S(=O)(=O)[O-])c4)cc3C)cc2)cc1.[Na+] [brilliant blue G]
net absorbance change (glutamate release) in response to BzATP ([3]; in presence of brilliant blue G, n=3): −0.9±0.9%

C[C@]12N[C@H](Cc3ccccc31)c1ccccc12 [MK-801]
ganglion cell survival, % of control ([1]; 50 μM BzATP + 10 μM MK-801, 24 hrs): 102.7±3.2 % of control
decrease of Ca2+ elevation triggered by BzATP ([4]; 10 μM MK-801): 50.1±5.5%
decrease of Ca2+ elevation triggered by BzATP ([2]; 10 μM MK-801, 50 μM BzATP 15 sec, peak vs mean response before and after): 55.1±6.5%

CNC(=O)[C@H]1O[C@@H](n2cnc3c(NCc4cccc(I)c4)ncnc32)[C@H](O)[C@@H]1O [IB-MECA]
ganglion cell survival, % of control [1, 6]: 98.5±2.7 % of control
reduction in the number of dead cells / protection against cell death triggered by BzATP ([1]; 24 hrs): 95%

Nc1ncnc2c1ncn2[C@@H]1O[C@H](COP(=O)(O)OP(=O)(O)OP(=O)(O)O)[C@@H](OC(=O)c2ccc(C(=O)c3ccccc3)cc2)[C@H]1O [BzATP]
increase in absorbance at 360 nm (glutamate release) ([3]; BzATP alone, 17 applications from 7 coverslips): 17.1±4.0%
ganglion cell survival, % of control ([1]; 50 μM BzATP alone, 24 hrs): 62.9 % of control and 68.9±2.3 % of control and 56.8 % of control and 79.0±2.9 % of control
mean levels of Ca2+ ([2]; first exposure to 50 μM BzATP alone, 15 sec): 647.0 ± 80.7 nM
mean levels of Ca2+ ([2]; third exposure to BzATP after removal of CI-IB-MECA): 600.3 ± 227.6 nM

CC12CC3CC(C)(C1)CC(N)(C3)C2 [memantine]
effect on ganglion cell survival ([1]; 50 μM BzATP + 100 μM memantine, 24 hrs): neuroprotective
inhibition at 30 µM ([4]; Rattus norvegicus, 30 μM memantine, read-out: inhibition of Ca2+ response to BzATP): 18.4 ± 4.2%
reduction of Ca2+ elevation triggered by BzATP ([2]; 30 μM memantine, in 4/7 experiments, effect variable, 50 μM BzATP): 65.5±6.7%

N[C@@H](CCCP(=O)(O)O)C(=O)O [APV, D-amino-phosphonovalerate]
ganglion cell survival levels ([1]; 50 μM BzATP + APV, 24 hrs): 77.8±5.9%
block of Ca2+ response to BzATP ([4]; 100 μM APV): 36.1±7.5%
mean reduction of Ca2+ elevation triggered by BzATP ([2]; APV (100 μM in FIG. 2C, 300 μM in summary), 50 μM BzATP 15 sec): 39.7±12.6%

CN[C@H](CC(=O)O)C(=O)O [NMDA, N-methyl-D-aspartate]
ganglion cell survival, % of control ([1]; 100 uM NMDA alone, 24 hrs): 69.9±3.2 % of control

CNC(=O)C1OC(n2cnc3c(NCc4cccc(I)c4)nc(Cl)nc32)C(O)C1O (stereo not shown) [CI-IB-MECA, 2-chloro-N6-(3-iodobenzyl)-adenosine-5-N-methyluronamide]
ganglion cell survival, % of control [1, 6]: 80.1±4.7 % of control
reduction in the number of dead cells / protection against cell death triggered by BzATP ([1]; 24 hrs): 54%
Kd [5]: > 100 µM
block of Ca2+ increase, normalized to peak of first response ([2]; 100 nM CI-IB-MECA, 50 μM BzATP 15 sec): 81%
mean levels of Ca2+ ([2]; second BzATP application in presence of 100 nM CI-IB-MECA): 110.7 ± 32.8 nM

From US20090220516A1, “Neuroprotection of retinal ganglion cells” (priority 2005, published 2009)
